Assays:
Type in all cases: in vivo
Viola tricolor (VIOTR) [1] = test: Pre-emergence herbicidal action against weed plants; settings: scored after 3 to 4 weeks
Text: (§1) 1. Pre-emergence Herbicidal Action Against Weed Plants Seeds or rhizome sections of mono- and dicotyledonous weed plants are set out in pots of 9 to 13 cm in diameter, in sandy loam soil, and are covered with soil. The herbicides, formulated as emulsifiable concentrates or dusts, are applied to the surface of the covering earth in the form of aqueous dispersions or suspensions or emulsions, at a water application rate of 300 to 800 l/ha (converted). The pots are then maintained under glass under optimum conditions for the further cultivation of the plants. After 3 to 4 weeks under optimum growth conditions under glass, the trial plants are scored for the effect of the compounds according to the invention in comparison to compounds disclosed in the prior art. […] [table]

[2] = test system: Pharbitis purpureum (PHBPU); test: as above; settings: scored after 3 to 4 weeks
Text: as §1

[3] = test system: Matricaria inodora (MATIN); test: Post-emergence herbicidal action against weed plants; settings: dose 80 g a.c./ha, scored after 3 to 4 weeks
Experimental: (§2) [table] 2. Post-emergence Herbicidal Action Against Weed Plants Seeds of monocotyledonous and dicotyledonous weed plants are set out in cardboard pots in sandy loam soil, covered with soil, and cultivated under glass under good growth conditions. Two to three weeks after sowing, the trial plants are treated at the three-leaf stage. The compounds according to the invention, formulated as wettable powders or as emulsifiable concentrates, are sprayed onto the surface of the green parts of the plants, at a water application rate of 600 to 800 l/ha (converted). After the trial plants have stood for 3 to 4 weeks under optimum growth conditions under glass, the action of the compounds according to the invention is scored in comparison to compounds disclosed in the prior art.

[4] = test system: Echinochloa crus galli (ECHCG); test: as above; settings: dose 80 g a.c./ha, scored after 3 to 4 weeks
Experimental: as §2

[5] = test system: Pharbitis purpureum (PHBPU); test: as above; settings: scored after 3 to 4 weeks
Experimental: as §2

[6] = test system: Alopecurus myosuroides (ALOMY); test: as above; settings: scored after 3 to 4 weeks
Experimental: as §2

[7] = test system: Matricaria inodora (MATIN); test: Pre-emergence herbicidal action against weed plants; settings: dose 320 g a.c./ha, scored after 3 to 4 weeks, Comparison Table 4
Text: as §1

Avena fatua (AVEFA) = test: as above; settings: dose 320 g a.c./ha, scored after 3 to 4 weeks, Comparison Table 4
Text: as §1

Setaria viridis (SETVI) [8] = test: Post-emergence herbicidal action against weed plants; settings: dose 80 g a.c./ha, scored after 3 to 4 weeks, Comparison Table 11
Experimental: as §2

Viola tricolor (VIOTR) [9] = test: as above; settings: dose 80 g a.c./ha, scored after 3 to 4 weeks, Comparison Table 11
Experimental: as §2

Setaria viridis (SETVI) [10] = test: Pre-emergence herbicidal action against weed plants; settings: dose 80 g a.c./ha, scored after 3 to 4 weeks, Comparison Table 5
Text: as §1

[11] = test system: Amaranthus retroflexus (AMARE); test: Post-emergence herbicidal action against weed plants; settings: dose 80 g a.c./ha, scored after 3 to 4 weeks, Comparison Table 8
Experimental: as §2

[12] = dose 320 g a.c./ha, Comparison Table 1
[13] = dose 80 g a.c./ha, Comparison Table 10
[14] = dose 80 g a.c./ha, Comparison Table 6
[15] = dose 320 g a.c./ha, Comparison Table 3
[16] = dose 320 g a.c./ha, Comparison Table 4
[17] = dose 80 g a.c./ha, Comparison Table 9
[18] = dose 80 g a.c./ha, Comparison Table 2
[19] = dose 80 g a.c./ha, Comparison Table 11
[20] = dose 80 g a.c./ha, Comparison Table 5
[21] = dose 80 g a.c./ha, Comparison Table 8
[22] = dose 80 g a.i./ha, Comparison Table 7

For `Cc1c(C(=O)C2C(=O)C3CCC(C3)C2=O)ccc(C(F)(F)C(F)(F)F)c1[S+](C)[O-]` (stereo not drawn) [drawing 13], the “Herbicidal action against VIOTR” value (Viola tricolor (VIOTR) [1]; [12]) was 100% and the “Herbicidal action against PHBPU” value [2, 12] was 90%.
For `CCn1ncc(C(=O)c2ccc(C(F)(F)F)c(S(C)(=O)=O)c2C)c1O` [drawing 32], the “Herbicidal action against MATIN” value ([3]; Comparison Table 10) was 90%, the “Herbicidal action against ECHCG” value ([4]; Comparison Table 10) was 90% and the “Herbicidal action against PHBPU” value [5, 13] was 40%.
For `Cc1c(C(=O)C2C(=O)C3CCC(C3)C2=O)ccc(C(F)(F)C(F)(F)F)c1[S+](C)[O-]` (stereo not drawn) [drawing 23], the “Herbicidal action against PHBPU” value [5, 14] was 100% and the “Herbicidal action against ALOMY” value [6, 14] was 90%.
With `Cc1c(C(=O)c2cnn(C)c2O)ccc(C(F)(F)F)c1[S+](C)[O-]` (stereo not drawn) [drawing 24] the “Herbicidal action against PHBPU” value [5, 14] was 60% and the “Herbicidal action against ALOMY” value [6, 14] was 60%.
`Cc1nn(C)c(O)c1C(=O)c1ccc(C(F)(F)F)c([S+](C)[O-])c1C` (stereo not drawn) [drawing 18] was tested, and the “Herbicidal action against VIOTR” value (Viola tricolor (VIOTR) [1]; [15]) was 40% and the “Herbicidal action against PHBPU” value [2, 15] was 60%.
In the case of `Cc1c(C(=O)C2C(=O)C3CCC(C3)C2=O)ccc(C(F)(F)C(F)(F)F)c1S(C)(=O)=O` (stereo not drawn) [drawing 19], the “Herbicidal action against MATIN” value [7] is reported as 100%, the “Herbicidal action against AVEFA” value (Avena fatua (AVEFA)) is reported as 80% and the “Herbicidal action against PHBPU” value [2, 16] is reported as 90%.
For `Cc1c(C(=O)c2cnn(C)c2O)ccc(C(F)(F)F)c1[S+](C)[O-]` (stereo not drawn) [drawing 14], the “Herbicidal action against VIOTR” value (Viola tricolor (VIOTR) [1]; [12]) was 90% and the “Herbicidal action against PHBPU” value [2, 12] was 50%.
For `Cc1c(C(=O)c2cnn(C)c2O)ccc(C(F)(F)F)c1S(C)(=O)=O` [drawing 30], the “Herbicidal action against MATIN” value ([3]; Comparison Table 9) was 55%, the “Herbicidal action against ECHCG” value ([4]; Comparison Table 9) was 95% and the “Herbicidal action against PHBPU” value [5, 17] was 80%.
With `Cc1c(C(=O)C2C(=O)C3CCC(C3)C2=O)ccc(C(F)(F)C(F)(F)F)c1S(C)(=O)=O` (stereo not drawn) [drawing 31] the “Herbicidal action against MATIN” value ([3]; Comparison Table 10) was 100%, the “Herbicidal action against ECHCG” value ([4]; Comparison Table 10) was 100% and the “Herbicidal action against PHBPU” value [5, 13] was 90%.
`CCn1ncc(C(=O)c2ccc(C(F)(F)F)c([S+](C)[O-])c2C)c1O` (stereo not drawn) was tested, and the “Herbicidal action against VIOTR” value (Viola tricolor (VIOTR) [1]; [18]) was 50% and the “Herbicidal action against PHBPU” value [2, 18] was 0%.
For `Cc1c(C(=O)C2C(=O)C3CCC(C3)C2=O)ccc(C(F)(F)C(F)(F)F)c1S(C)(=O)=O` (stereo not drawn) [drawing 29], the “Herbicidal action against MATIN” value ([3]; Comparison Table 9) was 100%, the “Herbicidal action against ECHCG” value ([4]; Comparison Table 9) was 100% and the “Herbicidal action against PHBPU” value [5, 17] was 90%.
For `Cc1c(C(=O)C2C(=O)C3CCC(C3)C2=O)ccc(C(F)(F)C(F)(F)F)c1S(C)(=O)=O` (stereo not drawn) [drawing 33], the “Herbicidal action against SETVI” value (Setaria viridis (SETVI) [8]) was 100%, the “Herbicidal action against VIOTR” value (Viola tricolor (VIOTR) [9]) was 100% and the “Herbicidal action against PHBPU” value [5, 19] was 90%.
For `CCn1ncc(C(=O)c2ccc(C(F)(F)F)c(S(C)(=O)=O)c2C)c1O` [drawing 20], the “Herbicidal action against MATIN” value [7] was 90%, the “Herbicidal action against AVEFA” value (Avena fatua (AVEFA)) was 40% and the “Herbicidal action against PHBPU” value [2, 16] was 50%.
For `Cc1c(C(=O)C2C(=O)C3CCC(C3)C2=O)ccc(C(F)(F)C(F)(F)F)c1[S+](C)[O-]` (stereo not drawn) [drawing 15], the “Herbicidal action against VIOTR” value (Viola tricolor (VIOTR) [1]; [18]) was 100% and the “Herbicidal action against PHBPU” value [2, 18] was 80%.
`Cc1c(C(=O)c2cnn(C)c2O)ccc(C(F)(F)F)c1S(C)(=O)=O` [drawing 22] was tested, and the “Herbicidal action against SETVI” value (Setaria viridis (SETVI) [10]) was 60% and the “Herbicidal action against VIOTR” value (Viola tricolor (VIOTR) [1]; [20]) was 50%.
`Cc1nn(C)c(O)c1C(=O)c1ccc(C(F)(F)F)c([S+](C)[O-])c1C` (stereo not drawn) [drawing 28] was tested, and the “Herbicidal action against AMARE” value [11] was 50%, the “Herbicidal action against PHBPU” value [5, 21] was 50% and the “Herbicidal action against ALOMY” value [6, 21] was 30%.
For `Cc1nn(C)c(O)c1C(=O)c1ccc(C(F)(F)F)c(S(C)(=O)=O)c1C`, the “Herbicidal action against SETVI” value (Setaria viridis (SETVI) [8]) was 60%, the “Herbicidal action against VIOTR” value (Viola tricolor (VIOTR) [9]) was 80% and the “Herbicidal action against PHBPU” value [5, 19] was 80%.
With `Cc1c(C(=O)c2cnn(C)c2O)ccc(C(F)(F)F)c1[S+](C)[O-]` (stereo not drawn) [drawing 26] the “Herbicidal action against PHBPU” value [5, 22] was 80% and the “Herbicidal action against ALOMY” value [6, 22] was 60%.
With `Cc1c(C(=O)C2C(=O)C3CCC(C3)C2=O)ccc(C(F)(F)C(F)(F)F)c1[S+](C)[O-]` (stereo not drawn) [drawing 25] the “Herbicidal action against PHBPU” value [5, 22] was 100% and the “Herbicidal action against ALOMY” value [6, 22] was 90%.
In the case of `Cc1c(C(=O)C2C(=O)C3CCC(C3)C2=O)ccc(C(F)(F)C(F)(F)F)c1[S+](C)[O-]` (stereo not drawn) [drawing 27], the “Herbicidal action against AMARE” value [11] is reported as 100%, the “Herbicidal action against PHBPU” value [5, 21] is reported as 100% and the “Herbicidal action against ALOMY” value [6, 21] is reported as 90%.
With `Cc1c(C(=O)C2C(=O)C3CCC(C3)C2=O)ccc(C(F)(F)C(F)(F)F)c1S(C)(=O)=O` (stereo not drawn) [drawing 21] the “Herbicidal action against SETVI” value (Setaria viridis (SETVI) [10]) was 100% and the “Herbicidal action against VIOTR” value (Viola tricolor (VIOTR) [1]; [20]) was 100%.
With `Cc1c(C(=O)C2C(=O)C3CCC(C3)C2=O)ccc(C(F)(F)C(F)(F)F)c1[S+](C)[O-]` (stereo not drawn) [drawing 17] the “Herbicidal action against VIOTR” value (Viola tricolor (VIOTR) [1]; [15]) was 100% and the “Herbicidal action against PHBPU” value [2, 15] was 90%.

From patent US8603947B2, “(4-haloalkyl-3-thiobenzoyl)cyclohexanediones and use thereof as herbicides” (Bayer Cropscience AG, priority 2010, dated 2013)
